From US9290440B2, “Bicyclic compound” (TOA EIYO LTD., priority 2012, dated 2016)
Read-outs that look alike come from different tables or passages of the source.

Legend:
[1] = target: T1, human sGC α subunit and β subunit (Homo sapiens, UniProt Q02153); assay: Maximum effect of sGC activating function (Ca2+ fluorescence in CHO-K1 cells expressing human sGC and mouse CNGA2); assay type: cell-based; details: increase ratio of sGC activity vs control solution at 10 μmol/L test compound
T1 construct: expressed in transfected cells
T1 sequence (Q02153 1-619): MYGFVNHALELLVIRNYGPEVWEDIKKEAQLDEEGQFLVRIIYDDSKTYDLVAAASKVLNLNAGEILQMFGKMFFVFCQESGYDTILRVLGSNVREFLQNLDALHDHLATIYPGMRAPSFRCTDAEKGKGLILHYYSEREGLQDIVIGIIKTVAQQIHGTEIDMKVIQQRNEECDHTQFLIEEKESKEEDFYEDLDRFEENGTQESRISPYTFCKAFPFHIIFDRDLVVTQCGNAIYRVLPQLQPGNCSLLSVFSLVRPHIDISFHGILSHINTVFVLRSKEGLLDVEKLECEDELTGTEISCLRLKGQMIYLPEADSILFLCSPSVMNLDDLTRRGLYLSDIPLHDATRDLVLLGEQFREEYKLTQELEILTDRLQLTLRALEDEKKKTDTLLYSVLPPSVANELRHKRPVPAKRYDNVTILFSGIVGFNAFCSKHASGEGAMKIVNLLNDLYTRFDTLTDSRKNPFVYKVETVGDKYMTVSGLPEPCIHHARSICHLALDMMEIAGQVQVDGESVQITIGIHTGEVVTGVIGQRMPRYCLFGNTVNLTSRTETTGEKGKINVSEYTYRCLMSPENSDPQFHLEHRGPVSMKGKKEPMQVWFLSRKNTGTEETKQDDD
T1 sequence (Q02108 1-690 partner): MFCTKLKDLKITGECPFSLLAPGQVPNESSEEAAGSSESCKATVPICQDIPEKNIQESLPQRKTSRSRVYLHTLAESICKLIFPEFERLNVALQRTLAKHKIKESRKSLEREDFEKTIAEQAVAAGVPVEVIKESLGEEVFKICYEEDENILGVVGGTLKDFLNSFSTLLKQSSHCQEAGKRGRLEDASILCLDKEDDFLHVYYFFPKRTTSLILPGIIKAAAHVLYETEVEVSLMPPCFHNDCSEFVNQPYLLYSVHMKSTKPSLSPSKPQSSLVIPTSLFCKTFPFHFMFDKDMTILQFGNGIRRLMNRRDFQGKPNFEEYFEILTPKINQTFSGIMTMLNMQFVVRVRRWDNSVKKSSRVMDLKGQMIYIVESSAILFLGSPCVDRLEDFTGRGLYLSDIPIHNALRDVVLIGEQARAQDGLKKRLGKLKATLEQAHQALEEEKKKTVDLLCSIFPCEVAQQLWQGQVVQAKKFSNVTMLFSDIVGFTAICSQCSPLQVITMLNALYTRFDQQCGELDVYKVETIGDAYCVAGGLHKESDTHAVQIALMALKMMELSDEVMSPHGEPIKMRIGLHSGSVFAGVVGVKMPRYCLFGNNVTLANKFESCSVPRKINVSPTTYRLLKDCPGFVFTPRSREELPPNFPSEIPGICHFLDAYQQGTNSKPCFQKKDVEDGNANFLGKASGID
Protocol: (§1) For the assay, Chinese hamster ovary cells (CHO-K1 cells) in which human sGC α subunit and β subunit and mouse cyclic nucleotide gated channel (CNGA2) are stably expressed were used.
(§2) CHO-K1 cells in which human sGC and mouse CNGA2 are stably expressed were cultured at 37° C. in F-12 medium containing 10% (v/v) fetal bovine serum (FBS), penicillin (100 U/mL), streptomycin (100 μg/mL), G418 (250 μg/mL), and zeocin (250 μg/mL). The cells were suspended in the culture medium and seeded onto a 96-well plate, and then cultured at 37° C. for 24 hours. After washing with assay buffer 1 (140 mmol/L sodium chloride, 5 mmol/L potassium chloride, 0.5 mmol/L magnesium chloride, 0.01 mmol/L calcium chloride, 10 mmol/L glucose, 0.4 mmol/L magnesium sulfate, 10 mmol/L 4-(2-hydroxyethyl)piperazin-1-ylethane sulfonic acid, and 125 μmol/L sulfinpyrazone, pH 7.4), an indicator solution in which FURA2-AM as a fluorescent Ca^2+ indicator is dissolved at concentration of 5 μmol/L in assay buffer 1 was added followed by culture for 60 minutes at 37° C. The indicator solution was removed. After washing with assay buffer 1, the test compound solution was added and incubated for 10 minutes at room temperature. The plate was placed in a fluorometer (Flex Station II, Molecular Devices, LLC), and then the intracellular calcium concentration was measured as fluorescence intensity ratio which is obtained from each excitation wavelength (excitation wavelength of 340 nm and 380 nm and detection wavelength of 510 nm).
(§3) The test compound solution was prepared by dissolving each of the test compounds in DMSO to a concentration of 10 mmol/L, and then adding the assay buffer 2 (140 mmol/L sodium chloride, 5 mmol/L potassium chloride, 0.5 mmol/L magnesium chloride, 1 mmol/L calcium chloride, 10 mmol/L glucose, 0.4 mmol/L magnesium sulfate, 10 mmol/L 4-(2-hydroxyethyl)piperazin-1-ylethane sulfonic acid, 125 μmol/L sulfinpyrazone, 100 μmol/L isobutylmethylxanthine, 10 μmol/L 1H-[1,2,4]-oxadiazole[4,3-a]quinoxalin-1-one (hereinbelow, ODQ), pH 7.4) for dilution to have test concentration of 10 μmol/L. For the evaluation of a case in which ODQ is not contained, the same evaluation was performed except that ODQ is excluded from assay buffer 2. As a control solution, a DMSO solution was used instead of the test compound solution.
(§4) The activity of the test compound corresponds to the increase ratio (%) of the sGC activity at the time of adding the test compound solution with respect to the sGC activity at the time of adding the control solution, and it was calculated by dividing the fluorescence intensity ratio at the time of adding the test compound by the fluorescence intensity ratio of the control solution and subtracting the sGC activity (100%) at the time of adding the control solution.
In this assay, intracellular cGMP concentration increases as sGC is activated, and according to opening of CNGA2 following the increase of cGMP, intracellular Ca^2+ concentration increases. Thus, SGC activation can be measured by following the change in intracellular Ca^2+ concentration. […] Thus, in the absence of ODQ, the maximum sGC activating function including the heme-dependent activation can be evaluated while the heme-independent sGC activating function can be evaluated in the presence of ODQ.

[2] = target: T1, human sGC α subunit and β subunit; assay: Heme-independent property of sGC activating function (EC50 ratio, CHO-K1 cells expressing human sGC and mouse CNGA2); assay type: cell-based; details: EC50 in the absence of ODQ divided by EC50 in the presence of ODQ, sGC activation
Protocol: as §1, §2, §3, §4
For the representative compounds, activity was measured in the same manner as Test Example 1 at each test concentration of 0.0001, 0.001, 0.003, 0.01, 0.03, 0.1, 1, and 10 μmol/L.
The degree of heme-independent property of each test compound with regard to sGC activating function was obtained by dividing, for EC50 measured from the concentration-activation curve which has been established from the above, EC50 in the absence of ODQ by EC50 in the presence of ODQ. Specifically, the smaller the EC50 ratio is, the less the change in sGC activating function is, the change in the function being caused by the presence or absence of ODQ, and thus it is found to be more heme-independent.
EC50 value was obtained by measuring the activity of each compound to be tested at concentrations of 0.0001, 0.001, 0.003, 0.01, 0.03, 0.1, 1, and 10 μmol/L and performing the calculation using four-parameter logistics model using Assay Explorer (Accelrys).

[3] = tested on: abdominal aorta ring specimen; assay: Evaluation of blood vessel relaxing function (phenylephrine-contracted abdominal aorta ring); details: relaxation of rat abdominal aorta contracted with 1 μmol/L phenylephrine; without vs with 10 μmol/L ODQ
Protocol: The representative compounds of the present invention were evaluated by blood vessel relaxing function according to the following Test Example. In the assay, bleeding from the upper part of a heart of a rat (male, SD) was performed under anesthesia with pentobarbital (30 mg/kg) and then abdominal aorta was extracted. The connecting tissue adhered around blood vessel was removed from the abdominal aorta in an ice-cooled Krebs-Henseleit solution (KH solution) (118 mmol/L sodium chloride, 4.7 mmol/L potassium chloride, 1.2 mmol/L magnesium sulfate, 1.2 mmol/L potassium dihydrogen phosphate, 25 mmol/L sodium hydrogen carbonate, 2.5 mmol/L calcium chloride, and 10 mmol/L glucose, pH 7.4). After that, a ring specimen with length of 2 mm was prepared and fixed in 5 mL organ bath filled with a KH solution. The KH solution was kept at 37° C. and aerated with a mixture gas of 95% O2 and 5% CO2. The specimen was stabilized for 1 hour with static tension of 1 g. The KH solution was exchanged twice during that time. The tension on the specimen was recorded on a multi-channel recorder via pickup and amplifier. After the stabilization of the specimen, contraction was caused by using 1 μmol/L phenylephrine (Phe), and cumulative administration of each compound (0.001, 0.01, 0.03, 0.1, 0.3, 1, 3, 10, 30, 100, 1000, 10000 nmol/L) was performed. For the evaluation of a case in which 1H-1,2,4-oxadiazole-(4,3a)-quinoxalin-1-one (ODQ) is contained, 10 μmol/L ODQ was added 10 minutes before the Phe addition, and the same evaluation as above was performed.
EC50 value was calculated using four-parameter logistics model using Assay Explorer (Accelrys). The test compound solution was dissolved in DMSO such that the concentration of each test compound is 1000 times the final concentration.

[4] = ODQ not contained, read-out: Emax (%) ODQ− (Heme-dependent)
[5] = with 10 μmol/L ODQ, read-out: Emax (%) ODQ+ (Heme-independent)

| Emax at 10 µM [1, 4] [%] | Emax at 10 µM [1, 5] [%] | EC50 Ratio (ODQ−/ODQ+) [2] | EC50 Ratio (ODQ−/ODQ+) [3] | SMILES |
| --- | --- | --- | --- | --- |
| 113 | 96.6 | 1.84 | – | O=C(O)CCCCN(CCc1ccccc1OC[C@H]1CC[C@@H](CCc2ccccc2)CC1)C1CCCc2cc(C(=O)O)ccc21 (stereo partly drawn) [Example 27, 5-{N-(4-Carboxybutyl)-N-[2-[2-[cis-4-(2-phenylethyl)cyclohexylmethoxy]phenyl]ethyl]amino}-5,6,7,8-tetrahydronaphthalene-2-carboxylic acid] |
| 86.7 | 122 | – | 4.3 | O=C(O)CCCCN(CCc1ccccc1OCc1ccc(C2CC2)cc1)C1CCCc2cc(C(=O)O)ccc21 (stereo not drawn) [Example 42, 5-{N-(4-Carboxybutyl)-N-[2-[2-(4-cyclopropylbenzyloxy)phenyl]ethyl]amino}-5,6,7,8-tetrahydronaphthalene-2-carboxylic acid] |
| 90.3 | 107 | – | 5.5 | CC(C)c1ccc(COc2ccccc2CCN(CCCCC(=O)O)C2CCCc3cc(C(=O)O)ccc32)cc1 (stereo not drawn) [Example 43, 5-{N-(4-Carboxybutyl)-N-[2-[2-(4-isopropylbenzyloxy)phenyl]ethyl]amino}-5,6,7,8-tetrahydronaphthalene-2-carboxylic acid] |
| 95.3 | 121 | – | 3.5 | C[C@@H](Oc1ccccc1CCN(CCCCC(=O)O)C1CCCc2cc(C(=O)O)ccc21)c1ccc(C(C)(C)C)cc1 (stereo partly drawn) [Example 45, 5-{N-[2-[2-[(1R)-1-(4-tert-Butylphenyl)ethoxy]phenyl]ethyl]-N-(4-carboxybutyl)amino}-5,6,7,8-tetrahydronaphthalene-2-carboxylic acid] |

Further lines, the molecule ahead of its results:

| SMILES | Emax at 10 µM [1, 4] [%] | Emax at 10 µM [1, 5] [%] | EC50 Ratio (ODQ−/ODQ+) [2] | EC50 Ratio (ODQ−/ODQ+) [3] |
| --- | --- | --- | --- | --- |
| O=C(O)CCCCN(CCc1ccccc1OCc1ccc(CCc2ccccc2)cc1)C1CCCc2nc(C(=O)O)ccc21 (stereo not drawn) [Example 6, 5-{N-(4-Carboxybutyl)-N-[2-[2-[4-(2-phenylethyl)benzyloxy]phenyl]ethyl]amino}-5,6,7,8-tetrahydroquinoline-2-carboxylic acid] | 126 | 99.9 | 0.87 | – |
| O=C(O)CCCCN(CCc1ccccc1OCc1ccc(CCc2ccccc2)cc1)C1COc2cc(C(=O)O)ccc21 (stereo not drawn) [Example 7, 3-{N-(4-Carboxybutyl)-N-[2-[2-[4-(2-phenylethyl)benzyloxy]phenyl]ethyl]amino}-2,3-dihydrobenzofuran-6-carboxylic acid] | 110 | 108 | 2.34 | – |
| O=C(O)CCCCN(CCc1ccccc1OCc1ccc(CCc2ccccc2)cc1)C1COCc2cc(C(=O)O)ccc21 (stereo not drawn) [Example 8, 4-{N-(4-Carboxybutyl)-N-[2-[2-[4-(2-phenylethyl)benzyloxy]phenyl]ethyl]amino}-isochromane-7-carboxylic acid] | 130 | 102 | 1.80 | – |
| O=C(O)CCCCN(CCc1ccccc1OCc1ccc(OCc2ccccc2)cc1)C1CCCc2cc(C(=O)O)ccc21 (stereo not drawn) [Example 14, 5-{N-[2-[2-(4-Benzyloxybenzyloxyl)phenyl]ethyl]-N-(4-carboxybutyl)amino}-5,6,7,8-tetrahydronaphthalene-2-carboxylic acid] | 99.1 | 101 | 1.73 | – |
| O=C(O)CCCCN(CCc1ccccc1OCc1ccc(/C=C/C2CCCCC2)cc1)C1CCCc2cc(C(=O)O)ccc21 (stereo not drawn) [Example 23, 5-{N-(4-Carboxybutyl)-N-[2-[2-[4-((E)-2-cyclohexylethenyl)benzyloxy]phenyl]ethyl]amino}-5,6,7,8-tetrahydronaphthalene-2-carboxylic acid] | 126 | 104 | 1.15 | – |
